Experimental data: patent US9149038B2, “4-amino-6-(heterocyclic)picolinates and 6-amino-2-(heterocyclic)pyrimidine-4-carboxylates and their use as herbicides” (Dow AgroSciences LLC, priority 2013, dated 2015)
Where two headings read alike, the source gives them in different places.

Assays:
[1] = system: Key Broadleaf Weed and Crop Species; assay: Post-Emergent Test II: postemergent herbicidal activity, visual rating after 14 d (Table 7); type: in vivo; conditions: post-emergence, 336 h; for pest or weed control at 35 g/ha: 35 g ai/ha; for pest or weed control at 70 g/ha: 70 g ai/ha; for pest or weed control at 140 g/ha: 140 g ai/ha
Summary of the method: (§1)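 Visual scoring at 14 d, 0 (no injury) to 100 (complete kill), relative to untreated plants. Postemergent overhead track-sprayer application, 187 L/ha, at a top rate plus serial ½×–1/16× rates, to plants grown 7–21 d at about 23–29° C day under a 15 h photoperiod, then subirrigated.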

[2] = system: Key Grass and Sedge Weeds as well as Grass Crops; assay: Post-Emergent Test II: postemergent herbicidal activity, visual rating after 14 d (Table 8); type: in vivo; conditions: post-emergence, 336 h; for pest or weed control at 35 g/ha: 35 g ai/ha; for pest or weed control at 70 g/ha: 70 g ai/ha; for pest or weed control at 140 g/ha: 140 g ai/ha
Summary of the method: as §1

[3] = lambsquarters (Chenopodium album), read-out: Visual Growth Reduction (%) 14 Days After Application CHEAL
[4] = oilseed rape, canola (Brassica napus), read-out: Visual Growth Reduction (%) 14 Days After Application BRSNN
[5] = redroot pigweed (Amaranthus retroflexus), read-out: Visual Growth Reduction (%) 14 Days After Application AMARE
[6] = sunflower (Helianthus annuus), read-out: Visual Growth Reduction (%) 14 Days After Application HELAN
[7] = velvetleaf (Abutilon theophrasti), read-out: Visual Growth Reduction (%) 14 Days After Application ABUTH
[8] = wild poinsettia (Euphorbia heterophylla), read-out: Visual Growth Reduction (%) 14 Days After Application EPHHL
[9] = barnyardgrass (Echinochloa crus-galli), read-out: Visual Growth Reduction (%) 14 Days After Application ECHCG
[10] = giant foxtail (Setaria faberi), read-out: Visual Growth Reduction (%) 14 Days After Application SETFA
[11] = maize, corn (Zea mays), read-out: Visual Growth Reduction (%) 14 Days After Application ZEAMX
[12] = rice (Oryza sativa), read-out: Visual Growth Reduction (%) 14 Days After Application ORYSA
[13] = wheat, spring (Triticum aestivum), read-out: Visual Growth Reduction (%) 14 Days After Application TRZAS
[14] = yellow nutsedge (Cyperus esculentus), read-out: Visual Growth Reduction (%) 14 Days After Application CYPES

| SMILES | pest or weed control at 35 g/ha [1, 3] | pest or weed control at 70 g/ha [1, 3] | pest or weed control at 140 g/ha [1, 3] | pest or weed control at 35 g/ha [1, 4] | pest or weed control at 70 g/ha [1, 4] | pest or weed control at 140 g/ha [1, 4] | pest or weed control at 35 g/ha [1, 5] | pest or weed control at 70 g/ha [1, 5] | pest or weed control at 140 g/ha [1, 5] | pest or weed control at 35 g/ha [1, 6] | pest or weed control at 70 g/ha [1, 6] | pest or weed control at 140 g/ha [1, 6] | pest or weed control at 35 g/ha [1, 7] | pest or weed control at 70 g/ha [1, 7] | pest or weed control at 140 g/ha [1, 7] | pest or weed control at 35 g/ha [1, 8] | pest or weed control at 70 g/ha [1, 8] | pest or weed control at 140 g/ha [1, 8] | pest or weed control at 35 g/ha [2, 9] | pest or weed control at 70 g/ha [2, 9] | other results |
| --- | --- | --- | --- | --- | --- | --- | --- | --- | --- | --- | --- | --- | --- | --- | --- | --- | --- | --- | --- | --- | --- |
| Nc1nc(-c2cc3c(cc2F)OC(F)(F)O3)nc(C(=O)O)c1Cl [Compound 57] | 0 to 29% | 0 to 29% | 0 to 29% | 0 to 29% | 0 to 29% | 0 to 29% | 0 to 29% | 0 to 29% | 85 to 94% | 45 to 59% | 85 to 94% | 95 to 100% | 0 to 29% | 0 to 29% | 0 to 29% | 0 to 29% | 60 to 74% | 95 to 100% | 85 to 94% | 95 to 100% | pest or weed control at 140 g/ha [2, 9]: 95 to 100%; pest or weed control at 35 g/ha [2, 10]: 45 to 59%; pest or weed control at 70 g/ha [2, 10]: 0 to 29%; pest or weed control at 140 g/ha [2, 10]: 45 to 59%; pest or weed control at 35 g/ha [2, 11]: 0 to 29%; pest or weed control at 70 g/ha [2, 11]: 30 to 44%; pest or weed control at 140 g/ha [2, 11]: 45 to 59%; pest or weed control at 35 g/ha [2, 12]: 0 to 29%; pest or weed control at 70 g/ha [2, 12]: 0 to 29%; pest or weed control at 140 g/ha [2, 12]: 0 to 29%; pest or weed control at 35 g/ha [2, 13]: 0 to 29%; pest or weed control at 70 g/ha [2, 13]: 0 to 29%; pest or weed control at 140 g/ha [2, 13]: 30 to 44%; pest or weed control at 35 g/ha [2, 14]: 0 to 29%; pest or weed control at 70 g/ha [2, 14]: 0 to 29%; pest or weed control at 140 g/ha [2, 14]: 0 to 29% |
| COC(=O)c1nc(-c2ccc3c(c2F)OC(F)(F)O3)nc(N)c1Cl [Compound 58] | 95 to 100% | 95 to 100% | 95 to 100% | 0 to 29% | 0 to 29% | 60 to 74% | 0 to 29% | 45 to 59% | 95 to 100% | 75 to 84% | 75 to 84% | 75 to 84% | 0 to 29% | 0 to 29% | 75 to 84% | 95 to 100% | 95 to 100% | 95 to 100% | 75 to 84% | 85 to 94% | pest or weed control at 140 g/ha [2, 9]: 95 to 100%; pest or weed control at 35 g/ha [2, 10]: 30 to 44%; pest or weed control at 70 g/ha [2, 10]: 45 to 59%; pest or weed control at 140 g/ha [2, 10]: 45 to 59%; pest or weed control at 35 g/ha [2, 11]: 45 to 59%; pest or weed control at 70 g/ha [2, 11]: 60 to 74%; pest or weed control at 140 g/ha [2, 11]: 75 to 84%; pest or weed control at 35 g/ha [2, 12]: 0 to 29%; pest or weed control at 70 g/ha [2, 12]: 0 to 29%; pest or weed control at 140 g/ha [2, 12]: 0 to 29%; pest or weed control at 35 g/ha [2, 13]: 0 to 29%; pest or weed control at 70 g/ha [2, 13]: 0 to 29%; pest or weed control at 140 g/ha [2, 13]: 0 to 29%; pest or weed control at 35 g/ha [2, 14]: 60 to 74%; pest or weed control at 70 g/ha [2, 14]: 60 to 74%; pest or weed control at 140 g/ha [2, 14]: 60 to 74% |
| Nc1nc(-c2ccc3c(c2F)OC(F)(F)O3)nc(C(=O)O)c1Cl [Compound 59] | 75 to 84% | 85 to 94% | 85 to 94% | 60 to 74% | 85 to 94% | 85 to 94% | 45 to 59% | 85 to 94% | 95 to 100% | 60 to 74% | 75 to 84% | 75 to 84% | 0 to 29% | 0 to 29% | 60 to 74% | 95 to 100% | 95 to 100% | 95 to 100% | 75 to 84% | 75 to 84% | pest or weed control at 35 g/ha [2, 10]: 45 to 59%; pest or weed control at 70 g/ha [2, 10]: 60 to 74%; pest or weed control at 140 g/ha [2, 10]: 60 to 74%; pest or weed control at 35 g/ha [2, 11]: 60 to 74%; pest or weed control at 70 g/ha [2, 11]: 60 to 74%; pest or weed control at 140 g/ha [2, 11]: 60 to 74%; pest or weed control at 35 g/ha [2, 12]: 0 to 29%; pest or weed control at 70 g/ha [2, 12]: 0 to 29%; pest or weed control at 140 g/ha [2, 12]: 0 to 29%; pest or weed control at 35 g/ha [2, 13]: 0 to 29%; pest or weed control at 70 g/ha [2, 13]: 0 to 29%; pest or weed control at 140 g/ha [2, 13]: 0 to 29%; pest or weed control at 35 g/ha [2, 14]: 0 to 29%; pest or weed control at 70 g/ha [2, 14]: 0 to 29%; pest or weed control at 140 g/ha [2, 14]: 85 to 94% |
| COC(=O)c1nc(-c2ccc3c(c2)OC(F)(F)O3)nc(N)c1Cl [Compound 60] | 60 to 74% | 75 to 84% | 85 to 94% | 45 to 59% | 60 to 74% | 60 to 74% | 0 to 29% | 30 to 44% | 45 to 59% | 75 to 84% | 75 to 84% | 75 to 84% | 30 to 44% | 60 to 74% | 75 to 84% | 75 to 84% | 75 to 84% | 85 to 94% | 60 to 74% | 75 to 84% | pest or weed control at 140 g/ha [2, 9]: 85 to 94%; pest or weed control at 35 g/ha [2, 10]: 30 to 44%; pest or weed control at 70 g/ha [2, 10]: 60 to 74%; pest or weed control at 140 g/ha [2, 10]: 75 to 84%; pest or weed control at 35 g/ha [2, 11]: 60 to 74%; pest or weed control at 70 g/ha [2, 11]: 75 to 84%; pest or weed control at 140 g/ha [2, 11]: 85 to 94%; pest or weed control at 35 g/ha [2, 12]: 0 to 29%; pest or weed control at 70 g/ha [2, 12]: 0 to 29%; pest or weed control at 140 g/ha [2, 12]: 0 to 29%; pest or weed control at 35 g/ha [2, 13]: 45 to 59%; pest or weed control at 70 g/ha [2, 13]: 60 to 74%; pest or weed control at 140 g/ha [2, 13]: 60 to 74%; pest or weed control at 35 g/ha [2, 14]: 75 to 84%; pest or weed control at 70 g/ha [2, 14]: 85 to 94%; pest or weed control at 140 g/ha [2, 14]: 85 to 94% |
